Experiments:
tau hyperphosphorylation [1] = assay: Okadaic acid induced AD-like tau hyperphosphorylation in rat hippocampal brain slices; format: cell-based
Protocol: Adult male Long-Evans rats were subjected to CO2 anesthesia and sacrificed by decapitation. Brains were rapidly removed (<2 min) and whole hippocampus was dissected using a blunt spatula. Hippocampi were cut into […] slices using a Mcllwain tissue chopper and placed into ice cold low Ca^2+ Krebs-Bicarbonate buffer (pH 7.) of the following composition in mM: NaCl, 124; KCL, 3.33; CaCl2, 0.01; KH2PO4, 1.25; MgSO4, 1.33; nAhco3, 25.7; D-glucose, 10; HEPES, 20. The slices were separated and placed, 5-8 per tube, into 5 mL of low Ca^2+ buffer and incubated for at least 30 min at 33-34° C. with water saturated oxygenation (95% O2, 5% CO2). After 30 min the solution was replaced with buffer containing a physiological level of Ca^2+ (1.3 mM) and incubated for an additional 30 min.
After a total equilibration period of at least 1 hr, the slices were pretreated with vehicle or inhibitor at concentrations ranging from 30 nM to 10 μM for 1 hr, and then exposed to either vehicle or okadaic acid fora 90 min. After treatment, the buffer was removed and the slices were sonicated for 10-20 see in 500 μl of homogenization buffer (100 mM KH2PO4, pH 6.5, 2 mM EGTA, 2 mM EDTA, 1 μM okadaic acid and the following protease inhibitors: aprotinin (10 μg/ml); leupeptin (10 μM); chymostatin (40 μM); PMSF (100 μM) and pepstatin (6 μg/ml).
Following sonication, the samples were centrifuged 16,000×g for 30 min and the supernatants were removed. After boiling of the supernatants for 5 mn at 100° C. the concentration of protein was determined by the BCA assay (Pierce) using BSA as standard and samples were normalized to equal protein concentration.
Aliquots of the heat stable supernatants were separated on 10% SDS-PAGE and Western-blotted with phosphorylation-sensitive tau mAb Tau-1 and PHF-tau mAb AT8 as described for SY5Y studies. Blots were developed by an ECL kit (Amersham Life Science). AT8 immunoreactivity was quantitated on Kodak X0OMAT AR film using a Biorad imaging densitometer GS 670, the strongest signals not exceeding an O.D. of 12.

tau hyperphosphorylation [2] = assay: Okadaic acid induced AD-like tau hyperphosphorylation in SY5Y cells; format: cell-based, human; conditions: for IC50: Homo sapiens
Protocol: SKNSH-SY 5Y cells were plated on fibronectin-coated 6 well (30 mm^2) culture dishes (Biocoat®, Collaborative Biomedical Products, Inc.) and grown to confluence in 5 mL of 50% D-MEM/50% F-12 Nutrient Mixture (Ham) supplemented with 15% heat-inactivated bovine serum (JRH Bioscience), 0.1 mM non-essential amino acids solution, 2 mM glutamine and pen/strep/fungizone (GibcoBRL Life Technologies, Inc.). Cell culture medium was changed every 48 hours.
For drug testing, cells were routinely pretreated with inhibitors in 1 mL (30 mm2) for 60 min at concentrations of 30 nM, 100 nM, 300 nM, […]. Compound stocks were all at 10 mM in DMSO and dilutions were made in DMSO. Cells were then treated with 1 μM okadaic acid (ammonium salt; LC Laboratories, dissolved at 1 mM in DMSO) for 90 min. All experiments, including controls, contained a final concentration of between 0.5 and 1% DMSO.
Cells were detached from 30 mm^2 plates and suspended into 1 mL of ice-cold PBS by gentle trituration, transferred into microcentrifuge tubes and sedimented for 12 seconds at 14,000×g. The supernatant was removed and cells were lysed in 250 μl cold homogenization buffer (50 mM MES, pH 5.8, 5 mM sodium pyrophosphate, 50 mM p-nitrophenylphosphate, 1 μM okadaic acid, 2 mM Na-orthovandate, 1 mM EDTA, 1 mM EGTA, 1 mM DTT, 10^ glycerol, 10 μM leupeptin, 1 μM pepstatin, 1 mg/mL aprotinin, 10 μM chymostatin, 1 mM PMSF, and 1% TRITON® x100) and vortexed briefly to aid in lysis. Cell debris was removed by centrifugation at 14,000×g for 5 minutes at 4° C. and cell supernatants were analyzed by anti-ERK2 and anti-tau Western-blotting as described below.
[…] of total cell lysate was run on a 10% tris-glycine polyacrylamide gels (Novex, 1.5 mm×10 well) at 100 volts for 2.5 hors and Western-blotted on nitrocellulose (Novex) overnight at 23 volts or 1.5 hrs at 100V in transfer buffer [Towbin et al. Proc. Natl. Acad. Sci. USA 76, 4350-4354 (1979]) at 4° C. Blots were analyzed for ERK2 and phosphotyrosine immunoreactivity with anti-ERK1+2 (Z033; Zymed Laboratories, Inc.; 1:5,000) and anti-phosphotyrosine (4G10; Upstate Biotechnology Inc.; 1:1,000) mAbs. Blots were also analyzed for phosphorylation-sensitive Tau immuno-reactivity with mAb Tau-1 (Boehringer Mannheim; 1:5,000) and phosphorylation dependent mAb AT8 against FHF-tau (Biosource International; 1:200). Total Tau populations were detected by Tau-1 immunoblotting after treating blots for 16 hrs at 37° C. with 100 units/mL alkaline phosphatase (Gibco BRL) in 5 mL of 50 mM Tris-HCI (pH 8.5), 0.1 mM EDTA. All blots were developed using ECL (enhanced chemiluminescence) Western blotting protocol (Amersham Life Science) with horseradish peroxidase-linked sheep anti-mouse secondary antibody and analyzed on Kodak X-OMAT AR scientific imaging film. Films were scanned into Adobe Photoshop and imported into NIH Image 1.44, where densitometric analysis was performed. Changes in tau phosphorylation were assessed by normalizing densitometrically determined mAb Tau-1 immunoreactivities in cell extracts to Tau-1 reaction after dephosphorylation on the blot. Ratios of Tau-1 reactivity prior to and after dephosphorylation were expressed in % relative to the ratio obtained from control cells not treated with okadaic acid (100%). Proteins isolated form neonatal rat brain were used for comparison in some experiments.
Correlation of potencies of inhibition of PK40 activity in vitro, and of OA-induced ERK2 and tau phosphorylation in SY5Y cells. ERK2 phosphorylation was quantified as the ratio of low mobility/total ERK2, densitometrically determined from ERK2 Western-blots (e.g. of FIG. 1). Tau hyperphosphorylation was expressed as densitometrically measured Tau-1 immunoreactivity normalized to total Tau-1 reactivity after unmasking of the epitope by phosphatase treatment of the blots.
Prevention of tau hyperphosphorylation by the preferred compound CIII (FIG. 1). […]

[3] = adult rat hippocampal slices, means of triplicate determinations, read-out: Inhibition of tau hyperphos. in brain slices IC50
[4] = SY5Y, 1 μM okadaic acid, means of triplicate determinations, read-out: Inhibition in SY5Y cells of tau hyperphos. IC50

SMILES | IC50 (tau hyperphosphorylation [1]; [3]) | IC50 (tau hyperphosphorylation [2]; [4]) | Effect on normal tau phosphorylation (tau hyperphosphorylation [2]; SY5Y cells not treated by okadaic acid) | Fully effective doses for prevention of tau hyperphosphorylation (tau hyperphosphorylation [2]; SY5Y cells, 1 μM okadaic acid) | Prevention of okadaic acid induced tau hyperphosphorylation (FIG. 1) (tau hyperphosphorylation [2]; SY5Y cells, 1 μM okadaic acid, Tau-1 Western blot) | IC50 (tau hyperphosphorylation [1]; adult rat hippocampal brain slices, FIG. 5, read-out: IC50 for prevention of tau hyperphosphorylation in brain slices) | IC50 (tau hyperphosphorylation [2]; SY5Y cells, okadaic acid, read-out: IC50 for prevention of tau hyperphosphorylation in SY5Y cells)
COC(=O)[C@@]1(O)C[C@H]2C[C@@H]1n1c3ccccc3c3c4c(c5c6ccccc6n2c5c31)C(=O)NC4=O (relative stereo) [CIII, 9,12-Methano-1H-diindolo[1,2,3-fg:3′,2′,1′-kl]pyrrolo[3,4-I][1,6] benzodiazocine-10-carboxylic acid, 2,3,9,10,11,12-hexahydro-10-hydroxy-1,3-dioxomethyl ester, (9α,10β,12α)] | 900 nM | 3600 nM | apparently not affected | > 1 µM | prevents the tau hyperphosphorylation in a dose dependent manner | – | –
CNC(=O)[C@]1(O)CC2CC1n1c3ccccc3c3c4c(c5c6ccccc6n2c5c31)C(=O)NC4=O (stereo partly drawn) [CII, 9,12-Methano-1H-diindolo[1,2,3-fg:3′,2′,1′-kl]pyrrolo[3,4-I][1,6] benzodiazocine-10-carboxamide, 2,3,9,10,11,12-hexahydro-10-hydroxy-N-methyl-1,3-dioxo-(9α,10β,12α)] | 180 nM | 580 nM | – | – | – | 100 nM | 100 nM

Source: patent US6541468B1, “Indolocarbazole derivatives useful for the treatment of neurodegenerative diseases and cancer” (Bayer Corporation, priority 1998, dated 2003)
